{
  "source": "patent US20220313620A1",
  "about": "“COMPOSITION FOR PREVENTING AND TREATING TAUOPATHIES” (SERVICIO ANDALUZ DE SALUD, priority 2019, published 2022)",
  "key": {"[1]": {"system": "AMP-activated Protein Kinase (AMPK)", "test": "Hippocampal AMPK (western blot) after 10 days of oral drinking", "format": "in vivo, Wistar rats", "details": "oral by drinking 100 mg/Kg for 10 days, hippocampus, FIG. 10", "description": "Animal experimental procedures were carried out in accordance with the European Communities directive 2010/63/EU and Spanish legislation (Real Decreto 53/2013). The protocol was approved by the Research and approved by Ethics Committee for Animal Experiments of the University of Malaga, Spain. In accordance with the ARRIVE guidelines, all efforts were made to minimize animal suffering and to reduce the number of animals used per experimental group. Chronic drinking experiments on Wistar rats were performed on 20 male rats. All adult rats, ageing 2 months (≈300 g of body weight), were provided by Charles River Laboratories (Barcelona, Spain). The animals were housed individually under a standard 12 h light-dark cycle in a room with temperature and humidity control. Water and rat chow pellets were provided ad libitum throughout the course of the present study. […]\nWestern Blot Analysis. […] Bands were quantified by densitometric analysis using ImageJ software (Rasband, WS, ImageJ, US National Institutes of Health, Bethesda, Md., USA). […] The results were expressed as the protein/α-Adaptin ratio or phosphorylated/total protein ratio and normalized to the control group (Y axis represents ‘fold mean of the control values’).\nAll data are expressed as mean±SEM. […]"}, "Glucagon": {"system": "Glucagon", "test": "Plasma glucagon (EIA) after acute oral gavage", "format": "in vivo", "details": "oral 500 mg/kg, adult male Wistar rats, FIG. 3E", "description": "The protocol was approved by the Ethics Committee for Animal Experiments of the University of Malaga.\nD-Pinitol (3-0-methyl-D-chiro-inositol) was generously provided by EURONUTRA SL (https://www.euronutra.com/, Malaga, Spain), in the form of crystalline fine powder (lot: PPN-M0201). For acute treatments, D-Pinitol was dissolved in water to be administered by gavage (orally) at different concentrations (100 mg/Kg and 500 mg/Kg), drug was administered at a volume of 1 ml/kg.\nAfter 18 hours of fasting, D-Pinitol dissolved in water was administered acutely by gavage (100 mg/kg in a first study, and 500 mg/kg in a subsequent study). After administration, the animals were sacrificed in groups at different times (being time 0 the administration of D-Pinitol). For the first study (100 mg/kg), groups of animals were sacrificed at times: 10, 20, 30, 60, 120, 240 and 360 minutes after administration; for the second study (500 mg/kg), animals were sacrificed at times: 60, 120 and 240 minutes after administration. […]\nThe plasma levels of insulin and ghrelin were determined with an enzyme-linked immunosorbent assay (ELISA) method using commercial kits: EMD Millipore Corporation (Billerica, Mass., USA) Cat. #EZRMI-13K and Cat. #EZRGRT-91K, respectively. Glucagon levels in plasma was determined with a Glucagon Enzyme Immunoassay (EIA) Kit: Cat. #RAB0202 Sigma-Aldrich (Saint Louis, Mo., USA). […]"}},
  "data": [
    {"compound": "COC1[C@@H](O)[C@@H](O)C(O)[C@H](O)[C@H]1O", "note": "(stereo partly drawn) [DPIN, (1S,2S,4S,5R)-6-methoxycyclohexane-1,2,3,4,5-pentol]", "values": [
      {"measurement": "kinase activation and total expression of AMPK", "setting": "[1]", "value": "No other changes"},
      {"measurement": "glucagon secretion", "setting": "Glucagon", "value": "Increase"}
    ]}
  ]
}
